What is called CC50 is the concentration at which the toxic effect on the cells reaches its halfway point. Higher therefore signals better tolerance by the cells.

SMILES strings stand for the structures. Values joined by “and” are separate entries in the source; they are usually repeats but may differ in a detail not shown here. Identical values can stand only once. Like-named read-outs stand apart in the source and are kept apart here. A value given as a limit tells only on which side of the number the result lay.

The record followed here is PMC8443647, “Hybrid derivative of cathelicidin and human beta defensin-2 against Gram-positive bacteria: A novel approach for the treatment of bacterial keratitis” (Scientific Reports, 2021).

One data set concerns P. aeruginosa PA-OS. Kind of data set: microbe, parasite or virus in culture. The class given is cell-based. To be noted: Pseudomonas aeruginosa, 24 h, caMHB, read-out: MIC. From the text:
(§1) A range of Gram-positive and Gram-negative laboratory- and clinical-strain bacteria were used for the experiments. These included laboratory-strain methicillin-sensitive S. aureus (MSSA; including SH1000 and ATCC SA29213), laboratory-strain MRSA (ATCC MRSA43300), clinical-strain MRSA (MRSA-OS; an IK isolate), laboratory-strain methicillin-sensitive Staphylococcus epidermidis (MSSE; ATCC SE12228), laboratory invasive-strain P. aeruginosa (PAO1-L), and clinical cytotoxic-strain P. aeruginosa (PA-OS; an IK isolate).
(§2) In vitro antimicrobial efficacy of the antibiotics and designed HDPs was determined using an established MIC assay with broth microdilution method approved by the Clinical and Laboratory Standards Institute (CLSI)[64]. Briefly, the microorganisms were cultured on Tryptone Soya Agar (TSA) and incubated overnight for 18–21 h at 37 °C. Bacterial inoculums were subsequently prepared using the direct colony suspension method. Three to five bacterial colonies were obtained from the agar plate and inoculated into an Eppendorf tube containing 1 ml of cation-adjusted Muller-Hinton broth (caMHB), consisting of 20–25 mg/L calcium ions (Ca^2+) and 10–12.5 mg/L magnesium ions (Mg^2+). The bacterial suspension was adjusted to achieve a turbidity equivalent to 0.1 OD600 or 0.5 MacFarland, containing ~ 1.5 × 10^8 colony-forming unit (CFU)/ml, which was then further diluted in 1:150 in caMHB to reach a final bacterial concentration of ~ 1 × 10^6 colony forming units (CFU)/ml. Each treatment (peptide or antibiotic) was prepared in 1:2 serial dilution in 96-well polypropylene microplates (with a final treatment volume of 50 μl per well), followed by the addition of 50 μl of 1 × 10^6 CFU/ml bacteria into each well (with a final bacterial concentration of 5 × 10^5 CFU/ml).

Another data set deals with P. aeruginosa PAO1-L. Kind of data set: microbe, parasite or virus in culture. The class given is cell-based. To be noted: Pseudomonas aeruginosa, PAO1, 24 h, caMHB, 24 h, read-out: MIC.
Excerpt: as §1, §2

For the next data set, the system named is fresh human erythrocytes. The data set is described as follows: Hemolytic assay. To be noted: 1 h. It counts as cell-based. The procedure:
(§3) Ethical approval was obtained from the Local Research Ethics Committee of University of Nottingham prior to the experiment (Ref: 176-1812). The experiment was conducted in accordance with the relevant guidelines and regulations. Hemolytic assay was performed according to the previously established protocol. Briefly, 5 ml of fresh human blood was collected from healthy participants with written informed consent, in an EDTA tube and centrifuged for 10 min at 1300g at 10 °C for separation of plasma. The remaining erythrocytes were rinsed and centrifuged further three times in Ca^2+/Mg^2+ free Dulbecco’s phosphate-buffered saline (DPBS). Subsequently, erythrocytes were diluted to 8% v/v in DPBS and incubated with 100 μl of treatment, positive control (1% Triton X-100) and negative control (DPBS), all in 1:1 ratio, for 1 h (final erythrocytes concentration = 4% v/v). After 1 h of incubation, the plate was centrifuged at 500×g for 5 min and 100 μl of supernatant of each well was transferred into a 96-well plate for measurement at OD540. Hemolysis (%) was calculated as [(Itreatment – INC)/(IPC – INC)] × 100.

Another data set is described as follows: Hemolytic assay. The class given is cell-based. Conditions: human. The procedure:
as §3

Another data set deals with S. aureus (SH1000). The data set is described as follows: Time-kill kinetics assay. The class given is cell-based, Staphylococcus aureus. The procedure: Time-kill kinetics assay was performed to determine the time-dependent and concentration-dependent in vitro antimicrobial effects of the CaD23 and amikacin, a commonly used topical antibiotics for BK, against 100 μl of ~ 1 × 10^6 CFU/ml of SH1000 (1:1 treatment-bacteria ratio) at various time points, including 0 min (pre-treatment), 15 min, 30 min, 60 min, 2 h, 4 h, and 24 h. At each time point, 10 μl of the treated bacteria was transferred to an Eppendorf tube containing 90 μl of PBS, which was then serially diluted in 1:10 concentration for inoculation on agar plates and incubated overnight for 18–21 h at 37 °C for enumeration of CFU.

The test system of another data set is MRSA-OS. The data set is described as follows: microbe, parasite or virus in culture. It counts as cell-based, Staphylococcus aureus. Conditions: caMHB, 24 h.
Excerpt: as §1, §2

The test system of a further data set is S. aureus SH1000. The data set is described as follows: microbe, parasite or virus in culture. The class given is cell-based, Staphylococcus aureus. To be noted: Staphylococcus aureus, SH1000, 24 h, caMHB, 24 h, read-out: MIC.
Excerpt: as §1, §2

In another data set the test system is S. aureus ATCC SA29213. Kind of data set: Multipassage antimicrobial resistance (AMR) assay. It counts as cell-based, Staphylococcus aureus. The procedure:
Multipassage AMR assays were performed to evaluate the risk of development of AMR of S. aureus (ATCC SA29213) against CaD23 and amikacin over 10 consecutive passages (days). The assay was conducted in a similar manner of the MIC assay described above. […] This was then further diluted in 1:150 in caMHB to reach a final bacterial concentration of ~ 1 × 10^6 colony forming units (CFU)/ml. […] Development of AMR was defined as ≥ fourfold increase in the MIC level compared to the baseline.

The next data set is described as follows: in vitro. It counts as cell-based, human. To be noted: human. The procedure: (§4) Cell viability and cytotoxicity of antibiotics and peptides were determined against human corneal epithelial cells (HCE-2, CRL-11135, ATCC, Manassas, Virginia, USA) using cell-counting-kit-8 (CCK-8) assay (Sigma Aldrich, Merck Life Science UK Limited, Dorset, UK) and lactate dehydrogenase (LDH) assay (ThermoFisher Scientific, UK), respectively, as per manufacturer’s guidelines. HCE-2 cells were cultured and seeded into a 96-well plate at a density of 7.5 × 10^3 cells/well and allowed to attach overnight and grew to 80–90% confluency in keratinocyte serum free medium (KSFM) supplemented with human recombinant epidermal growth factor, bovine pituitary extract, hydrocortisone, and insulin. Once the confluency reached 80–90%, the cells were incubated with treatment for 3 h before OD450 measurement was taken using BMG Clariostar microplate reader (BMG Labtech Ltd., Aylesbury, UK). Appropriate controls were used, including 0.1% Triton X-100 as positive control and KSFM as negative control. Cell viability was calculated using the following formula: [([…]) × 100; I = intensity] and cytotoxicity was calculated using the following formula: [((Itreatment – INC)/(IPC – INC)) × 100].

The test system of data set [1] is human corneal epithelial cells (HCE-2). Kind of data set: in vitro. It counts as cell-based. To be noted: human, 3 h, 200 µg/ml. The method, then: as §4
Data set [2] shares this test system. Kind of data set: cells. The class given is cell-based. Conditions: 3 h; for IC50: Homo sapiens, Corneal epithelial cell, read-out: IC50 (concentration causing 50% inhibition of cell viability). The method, then:
as §4

Another data set has as its system S. aureus ATCC 29213. Kind of data set: Murine S. aureus keratitis model (in vivo efficacy). The arrangement: species or system Staphylococcus aureus; C57BL/6J mice. To be noted: levofloxacin 0.5%. The method, then: Based on the in vivo safety data, the highest tolerable concentration of CaD23, 500 μg/ml (0.05%), was used in the subsequent S. aureus keratitis murine model. Levofloxacin 0.5%, a commonly used antibiotic for BK in clinical setting, and PBS were used as the positive and negative controls, respectively.
All mice were randomly allocated to each treatment group (n = 5 mice/group). Slit-lamp examination was performed before the start of experiment to confirm the health of corneas. […] 10 μl of ~ 1 × 10^8 CFU/ml of ATCC SA29213 was applied topically onto the cornea and the lid was held shut for 1 min. […] The eyes were monitored daily using slit-lamp biomicroscopy and photography. Ocular clinical scoring was adapted from a previous method described by Clemens et al.[52] with minor modifications: (a) 0: Clear cornea or minimal opacity, partially covering the pupil; (b) + 1: Mild opacity, partially/fully covering the pupil; (c) + 2: Dense opacity, partially covering the pupil; (d) + 3: Dense opacity fully covering the pupil; and (e) + 4: Corneal perforation or phthisis.
At the end of day 3, all animals were sacrificed, and the infected eyes were enucleated. The whole corneas were subsequently dissected and homogenized in 1 ml of sterile PBS using sterile glass micro-beads. The homogenised infected corneal tissue suspension was serially diluted in 1:10 and plated on TSA plates in triplicates for enumeration of CFU after 24 h incubation at 37 °C.

[3] abbreviates: Staphylococcus aureus, MRSA, 0 mM NaCl, read-out: MIC.

Regarding `NCC[C@H](O)C(=O)N[C@@H]1C[C@H](N)[C@@H](O[C@H]2O[C@H](CN)[C@@H](O)[C@H](O)[C@H]2O)[C@H](O)[C@H]1O[C@H]1O[C@H](CO)[C@@H](O)[C@H](N)[C@H]1O` [Amikacin, amikacin, reference compound], the MIC in the data set on P. aeruginosa PA-OS (0 mM NaCl) was 0.63 µg/mL and 1.08 µM; in the data set on P. aeruginosa PA-OS (150 mM NaCl), 1.25 µg/mL and 2.13 µM; with P. aeruginosa PAO1-L (0 mM NaCl), 0.63 µg/mL and 1.08 µM; in the data set on P. aeruginosa PAO1-L (150 mM NaCl), 1.25 µg/mL and 2.13 µM; against MRSA-OS (150 mM NaCl), 10 µg/mL; with MRSA-OS (150 mM NaCl, read-out: MIC) it was 17.1 µM. The MIC is 10 µg/mL and 17.1 µM in the data set with MRSA-OS (setting [3]); 1.25 µg/mL and 2.13 µM with S. aureus SH1000 (0 mM NaCl); 2.5 µg/mL and 4.27 µM in the data set with S. aureus SH1000 (150 mM NaCl). In addition, in the data set with fresh human erythrocytes, the “HC50 (concentration causing 50% hemolysis)” value is over 200 µg/mL. In addition, the hemolysis at 1 h, 200 µg/ml in “Hemolytic assay” (fresh human erythrocytes (4% v/v), human erythrocytes, 200 µg/ml, 1 h, mean (SD), read-out: Hmax (%): percentage of hemolysis at 200 µg/ml) was found to be 0%. In addition, in the data set on S. aureus (SH1000) (CaD23 25 μg/ml, amikacin 10 μg/ml and 25 μg/ml), the “Bacterial re-growth at 24 h time-point” value was “no evidence of bacterial re-growth”. Moreover, the “Time to complete killing” value in the data set on S. aureus (SH1000) (amikacin 20 μg/ml (8× MIC), caMHB with 150 mM NaCl) was at most 4 h; in the data set on S. aureus (SH1000) (amikacin 8× MIC (10 μg/ml), caMHB) it was at most 4 h. Also, the “Speed of killing relative to CaD23 (times slower)” value in the data set with S. aureus (SH1000) (amikacin 25 μg/ml (20× MIC) vs CaD23 25 μg/ml (2× MIC)) came to 8 times. For the same compound, in the data set with S. aureus ATCC SA29213 (2nd passage), the “Increase in the MIC after the 2nd passage” value was “fourfold”. In the data set with S. aureus ATCC SA29213 (10 consecutive passages (days)), the “Increase in the MIC after the 10th passage” value was 32 fold. In addition, in the data set on S. aureus ATCC SA29213 (AMR defined as ≥ fourfold increase in MIC vs baseline), the “Development of AMR after 10 consecutive passages” value is recorded as “developed significant AMR”. Also, the half-maximal cytotoxic concentration (CC50) at 3 h in “in vitro” is over 200 µg/mL. The “Lmax (%): percentage of cytotoxicity at 200 µg/ml” value in [1] is given as 0.0 (0.1) %. Also, the IC50 in data set [2] is over 200 µg/mL.
With `C[C@H]1COc2c(N3CCN(C)CC3)c(F)cc3c(=O)c(C(=O)O)cn1c23` [Levofloxacin, levofloxacin, reference compound], the MIC with P. aeruginosa PA-OS (0 mM NaCl) was 0.31 µg/mL and 0.86 µM; in the data set on P. aeruginosa PA-OS (150 mM NaCl), 0.31 µg/mL and 0.86 µM; in the data set on P. aeruginosa PAO1-L (0 mM NaCl) it was 0.31 µg/mL and 0.86 µM; in the data set with P. aeruginosa PAO1-L (150 mM NaCl), 0.31 µg/mL and 0.86 µM; against MRSA-OS (150 mM NaCl), 0.31 µg/mL; with MRSA-OS (150 mM NaCl, read-out: MIC) it was 0.86 µM. The MIC is 0.31 µg/mL and 0.86 µM in the data set on MRSA-OS (setting [3]); 0.31 µg/mL and 0.86 µM with S. aureus SH1000 (0 mM NaCl); 0.31 µg/mL and 0.86 µM with S. aureus SH1000 (150 mM NaCl). Besides, the “HC50 (concentration causing 50% hemolysis)” value with fresh human erythrocytes was over 200 µg/mL. The hemolysis at 1 h, 200 µg/ml in “Hemolytic assay” (Hmax (%): percentage of hemolysis at 200 µg/ml) came out at 0%. For the same compound, the “S. aureus bacterial viability” value in the data set on S. aureus ATCC 29213 (CaD23 0.05%, after 3 days of treatment, median ± IQR) was 2.4 ± 2.2 log10 CFU/ml. Also, the “Reduction of S. aureus bacterial viability compared to PBS group” value in the data set on S. aureus ATCC 29213 (CaD23 0.05%, topical 4 times a day for 3 days, median) came out at 98%. The same compound had an Ocular clinical scoring in the data set on S. aureus ATCC 29213 (day 3 post-treatment, CaD23 0.05%, scale 0 to +4) of 1.0 ± 0.71. Also, in the data set on S. aureus ATCC 29213, the “Median reduction in the bacterial bioburden compared to the PBS group” value is 1.8 logCFU. The half-maximal cytotoxic concentration (CC50) at 3 h in the data set “in vitro” is over 200 µg/mL. Besides, the “Lmax (%): percentage of cytotoxicity at 200 µg/ml” value in [1] is on record as 1.2 (0.7) %. In addition, in data set [2] (HCE-2, CCK-8 assay, 200 µg/ml, mean (SD)), the “Imax (%): percentage of inhibition of cell viability at 200 µg/ml” value is 108.0 (2.8) %. Moreover, the IC50 in [2] (HCE-2, CCK-8 assay, mean (SD)) is over 200 µg/mL.
